Source: patent publication EP4578856A1, “HETEROCYCLIC COMPOUND” (Ubience Inc., priority 2022, dated 2024)

Target: ROCK2 protein (Homo sapiens, UniProt O75116)
Assay: Degradation inducing activity of ROCK2 protein in HUVEC cells, Western blotting (Simple Western JESS)
Type: cell-based
Set-up: endogenous in cells; host or cells: HUVEC (ATCC CRL-1730)
Conditions: HUVEC, 24 h; for inhibition at 1 µM: degradation rate at 1 µM; for inhibition at 10 µM: degradation rate at 10 µM
Protocol: In vitro degradation inducing activity of ROCK2 protein of compounds of Examples was evaluated by Western Blotting (WB).
By a test compound, 10 mM DMSO solution was prepared, which was used as a 10 µM test compound solution. Further, the solution was diluted 10-fold with DMSO to prepare a 1 mM solution, which was used as a 1 µM test compound solution.
HUVEC cells (ATCC: CRL-1730, Lot: 70041472) were cultured in F-12K medium supplemented with 10% FBS, 0.1 mg/mL heparin, […] Endothelial Cell Growth Supplement (ECGS, Corning), and 1% Penicillin/Streptomycin. The HUVEC cells seeded in a 24 well plate at 50,000 cells/well/1 mL were cultured for 24 hours, and then 1 µL of DMSO or a test compound solution was added thereto and treatment was performed for 24 hours. Cells were harvested and lysed for 20 minutes on ice using lysis buffer (Cell Signaling Technology, Cat#9803) supplemented with protease inhibitor cocktail (Sigma, Cat#P8340; Roche, Cat#P11873580001), and phosphatase inhibitor cocktail (Sigma, Cat#P5726, P0044). The lysate was sonicated (15 seconds, amplitude 30%, 1 cycle) and then centrifuged at 12500 rpm for 15 minutes at 4°C. The protein concentration was determined by BCA assay kit (Thermo Fisher Scientific, Cat#23225).
The western blotting was performed using Simple Western JESS (protein simple). A cell lysis sample (protein amount; about 1.06 µg) was loaded on a plate of Simple Western JESS, and the expression level of ROCK2 protein was detected using a 12-230 kDa Wes Separation Module (Protein simple, Cat#SM-WO04), an Anti-Rabbit Detection Module for Wes (Protein simple, Cat#DM-001), and a Total Protein Detection Module for Wes (Protein simple, Cat#DM-TP01). As the primary antibody, a material obtained by diluting ROCK2 (D1B1) Rabbit mAb (Cell Signaling Technology, Cat#9029) at 1:10 was used, and as the secondary antibody, a material obtained by diluting HRP-labeled anti-rabbit IgG antibody (Cell Signaling Technology, Cat#7074S) at 1:100 was used. The expression level of the target protein was standardized using the total protein amount loaded as a reference. The standardized expression level data of the control (DMSO) was taken as 100%, and the degradation rate (%) was calculated from the average standardized expression level data of the test compound. All analysis steps, such as data detection and analysis, are fully automated.
With respect to the ROCK2 protein degradation rate of the test compound, the protein degradation rates (%) at the evaluation concentrations were set to A ≥ 75%, 75% > B ≥ 50%, 50% > C ≥ 25%, and D < 25%, and are shown in Table 7.

Sequence of ROCK2 protein (O75116 whole entry): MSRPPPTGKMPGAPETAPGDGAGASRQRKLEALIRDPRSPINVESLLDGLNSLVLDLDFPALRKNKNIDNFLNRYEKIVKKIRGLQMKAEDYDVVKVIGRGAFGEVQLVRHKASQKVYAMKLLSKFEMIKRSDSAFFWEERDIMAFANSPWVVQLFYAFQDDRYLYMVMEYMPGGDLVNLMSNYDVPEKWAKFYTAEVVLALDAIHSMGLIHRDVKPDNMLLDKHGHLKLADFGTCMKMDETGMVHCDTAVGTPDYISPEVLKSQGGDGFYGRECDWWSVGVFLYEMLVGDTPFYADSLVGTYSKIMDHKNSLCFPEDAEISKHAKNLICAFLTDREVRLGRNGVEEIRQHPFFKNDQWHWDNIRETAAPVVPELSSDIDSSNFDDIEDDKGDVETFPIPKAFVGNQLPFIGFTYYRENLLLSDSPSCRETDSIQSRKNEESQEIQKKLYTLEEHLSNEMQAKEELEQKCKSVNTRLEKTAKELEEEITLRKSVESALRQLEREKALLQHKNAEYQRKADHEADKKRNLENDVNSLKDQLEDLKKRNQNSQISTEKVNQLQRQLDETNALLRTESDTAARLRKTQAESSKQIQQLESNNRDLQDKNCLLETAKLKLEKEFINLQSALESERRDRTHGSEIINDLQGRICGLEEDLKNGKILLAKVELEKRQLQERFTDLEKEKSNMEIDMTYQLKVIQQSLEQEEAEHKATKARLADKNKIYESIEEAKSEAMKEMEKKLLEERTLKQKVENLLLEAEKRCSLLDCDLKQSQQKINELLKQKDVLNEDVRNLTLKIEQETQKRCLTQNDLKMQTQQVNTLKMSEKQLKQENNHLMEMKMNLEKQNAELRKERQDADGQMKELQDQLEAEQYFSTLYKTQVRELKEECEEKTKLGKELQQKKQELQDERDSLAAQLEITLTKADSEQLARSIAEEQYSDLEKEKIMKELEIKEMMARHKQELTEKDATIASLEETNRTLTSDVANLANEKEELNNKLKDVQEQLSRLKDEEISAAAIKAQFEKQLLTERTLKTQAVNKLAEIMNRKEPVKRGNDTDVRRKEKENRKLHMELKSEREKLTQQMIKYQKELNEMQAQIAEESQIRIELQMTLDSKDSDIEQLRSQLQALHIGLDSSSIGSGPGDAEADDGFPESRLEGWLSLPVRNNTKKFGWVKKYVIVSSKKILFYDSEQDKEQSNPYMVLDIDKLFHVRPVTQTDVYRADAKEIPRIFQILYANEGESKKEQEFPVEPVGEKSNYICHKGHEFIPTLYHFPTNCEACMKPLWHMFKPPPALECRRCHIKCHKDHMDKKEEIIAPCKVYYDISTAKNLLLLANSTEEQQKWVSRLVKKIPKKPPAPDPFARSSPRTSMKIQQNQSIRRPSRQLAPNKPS

SMILES | inhibition at 1 µM | inhibition at 10 µM
COC[C@H]1CN[C@H](C)CN1CC(=O)N1CC(C)(C)c2ncc(Cc3ccccc3OCCOCCOCCOCCOCCN[C@H](Cc3cccc(F)c3)C(=O)Nc3ccc(-c4ccncc4)cc3)cc21 [Example 74, (R)-2-(3-Fluorobenzyl)-17-(2-((1-(2-((2R,5R)-2-(methoxymethyl)-5-methylpiperazin-1-yl)acetyl)-3,3-dimethyl-2,3-dihydro-1H-pyrrolo[3,2-b]pyridin-6-yl)methyl)phenoxy)-N-(4-(pyridin-4-yl)phenyl)-6,9,12,15-tetraoxa-3-azaheptadecanamide] | < 25% | 50 to 75%
COC[C@H]1CN[C@H](C)CN1CC(=O)N1CC(C)(C)c2ncc(Cc3cccc(OCCOCCOCCOCCN[C@H](C)c4ccc(C(=O)Nc5ccncc5)cc4)c3)cc21 [Example 45, 4-((R)-14-(3-((1-(2-((2R,5R)-2-(Methoxymethyl)-5-methylpiperazin-1-yl)acetyl)-3,3-dimethyl-2,3-dihydro-1H-pyrrolo[3,2-b]pyridin-6-yl)methyl)phenoxy)-6,9,12-trioxa-3-azatetradecan-2-yl)-N-(pyridin-4-yl)benzamide] | < 25% | 50 to 75%
COC[C@H]1CN[C@H](C)CN1CC(=O)N1CC(C)(C)c2nc(CN(C)CCOCCOCCOCCOCCNC[C@@H](C(=O)Nc3ccc4cnccc4c3)c3ccccc3)c(Cc3ccc(F)cc3)cc21 [Example 39, (S)-1-(6-(4-Fluorobenzyl)-1-(2-((2R,5R)-2-(methoxymethyl)-5-methylpiperazin-1-yl)acetyl)-3,3-dimethyl-2,3-dihydro-1H-pyrrolo[3,2-b]pyridin-5-yl)-N-(isoquinolin-6-yl)-2-methyl-19-phenyl-5,8,11,14-tetraoxa-2,17-diazaicosan-20-amide] | 25 to 50% | ≥ 75%
COC[C@H]1CN[C@H](C)CN1CC(=O)N1CC(C)(C)c2ncc(Cc3cccc(OCCOCCOCCOCCNC[C@@H](C(=O)Nc4ccc5cnccc5c4)c4ccccc4)c3)cc21 [Example 59, (S)-N-(Isoquinolin-6-yl)-1-(3-((1-(2-((2R,5R)-2-(methoxymethyl)-5-methylpiperazin-1-yl)acetyl)-3,3-dimethyl-2,3-dihydro-1H-pyrrolo[3,2-b]pyridin-6-yl)methyl)phenoxy)-14-phenyl-3,6,9-trioxa-12-azapentadecan-15-amide] | ≥ 75% | ≥ 75%
COC[C@H]1CN[C@H](C)CN1CC(=O)N1CC(C)(C)c2ncc(Cc3cccc(OCCOCCOCCOCCOCCOCCOCCN[C@H](Cc4cccc(F)c4)C(=O)Nc4ccc(-c5ccncc5)cc4)c3)cc21 [Example 55, (R)-2-(3-Fluorobenzyl)-23-(3-((1-(2-((2R,5R)-2-(methoxymethyl)-5-methylpiperazin-1-yl)acetyl)-3,3-dimethyl-2,3-dihydro-1H-pyrrolo[3,2-b]pyridin-6-yl)methyl)phenoxy)-N-(4-(pyridin-4-yl)phenyl)-6,9,12,15,18,21-hexaoxa-3-azatricosanamide] | < 25% | 50 to 75%
COC[C@H]1CN[C@H](C)CN1CC(=O)N1CC(C)(C)c2nc(CN(C)CCOCCOCCOCCOCCOCCN[C@H](C)c3ccc(C(=O)Nc4ccncc4)cc3)c(Cc3ccc(F)cc3)cc21 [Example 26, 4-((R)-1-(6-(4-Fluorobenzyl)-1-(2-((2R,5R)-2-(methoxymethyl)-5-methylpiperazin-1-yl)acetyl)-3,3-dimethyl-2,3-dihydro-1H-pyrrolo[3,2-b]pyridin-5-yl)-2-methyl-5,8,11,14,17-pentaoxa-2,20-diazadocosan-21-yl)-N-(pyridin-4-yl)benzamide] | 50 to 75% | ≥ 75%
COC[C@H]1CN[C@H](C)CN1CC(=O)N1CC(C)(C)c2ncc(Cc3ccccc3OCCOCCOCCN[C@H](Cc3cccc(F)c3)C(=O)Nc3ccc(-c4ccncc4)cc3)cc21 [Example 72, (R)-3-(3-Fluorophenyl)-2-((2-(2-(2-(2-((1-(2-((2R,5R)-2-(methoxymethyl)-5-methylpiperazin-1-yl)acetyl)-3,3-dimethyl-2,3-dihydro-1H-pyrrolo[3,2-b]pyridin-6-yl)methyl)phenoxy)ethoxy)ethoxy)ethyl)amino)-N-(4-(pyridin-4-yl)phenyl)propanamide] | < 25% | ≥ 75%
COC[C@H]1CN[C@H](C)CN1CC(=O)N1CC(C)(C)c2nc(CN(C)CCOCCOCCOCCOCCOCCOCCN[C@H](C)c3ccc(C(=O)Nc4ccncc4)cc3)c(Cc3ccc(F)cc3)cc21 [Example 27, 4-((R)-1-(6-(4-Fluorobenzyl)-1-(2-((2R,5R)-2-(methoxymethyl)-5-methylpiperazin-1-yl)acetyl)-3,3-dimethyl-2,3-dihydro-1H-pyrrolo[3,2-b]pyridin-5-yl)-2-methyl-5,8,11,14,17,20-hexaoxa-2,23-diazapentacosan-24-yl)-N-(pyridin-4-yl)benzamide] | < 25% | < 25%
COC[C@H]1CN[C@H](C)CN1CC(=O)N1CC(C)(C)c2ncc(Cc3cccc(OCCOCCOCCOCCOCCOCCOCCOCCN[C@H](C)c4ccc(C(=O)Nc5ccncc5)cc4)c3)cc21 [Example 49, 4-((R)-26-(3-((1-(2-((2R,5R)-2-(Methoxymethyl)-5-methylpiperazin-1-yl)acetyl)-3,3-dimethyl-2,3-dihydro-1H-pyrrolo[3,2-b]pyridin-6-yl)methyl)phenoxy)-6,9,12,15,18,21,24-heptaoxa-3-azahexacosan-2-yl)-N-(pyridin-4-yl)benzamide] | ≥ 75% | 50 to 75%
COC[C@H]1CN[C@H](C)CN1CC(=O)N1CC(C)(C)c2ncc(Cc3cccc(OCCOCCNC[C@@H](C(=O)Nc4ccc5cnccc5c4)c4ccccc4)c3)cc21 [Example 57, (S)-N-(Isoquinolin-6-yl)-3-((2-(2-(3-((1-(2-((2R,5R)-2-(methoxymethyl)-5-methylpiperazin-1-yl)acetyl)-3,3-dimethyl-2,3-dihydro-1H-pyrrolo[3,2-b]pyridin-6-yl)methyl)phenoxy)ethoxy)ethyl)amino)-2-phenylpropanamide] | 25 to 50% | ≥ 75%
C[C@@H]1CN(CC(=O)N2CC(C)(C)c3ncc(Cc4ccc(F)cc4)cc32)[C@@H](CN(C)CCOCCOCCOCCOCCN[C@H](Cc2cccc(F)c2)C(=O)Nc2ccc(-c3ccncc3)cc2)CN1 [Example 11, (R)-18-(3-Fluorobenzyl)-1-((2R,5R)-1-(2-(6-(4-fluorobenzyl)-3,3-dimethyl-2,3-dihydro-1H-pyrrolo[3,2-b]pyridin-1-yl)-2-oxoethyl)-5-methylpiperazin-2-yl)-2-methyl-N-(4-(pyridin-4-yl)phenyl)-5,8,11,14-tetraoxa-2,17-diazanonadecan-19-amide] | 50 to 75% | ≥ 75%
C[C@@H]1CN(CC(=O)N2CC(C)(C)c3ncc(Cc4ccc(F)cc4)cc32)[C@@H](CN(C)CCOCCNC[C@@H](C(=O)Nc2ccc3cnccc3c2)c2ccccc2)CN1 [Example 15, (S)-3-((2-(2-((((2R,5R)-1-(2-(6-(4-Fluorobenzyl)-3,3-dimethyl-2,3-dihydro-1H-pyrrolo[3,2-b]pyridin-1-yl)-2-oxoethyl)-5-methylpiperazin-2-yl)methyl)(methyl)amino)ethoxy)ethyl)amino)-N-(isoquinolin-6-yl)-2-phenylpropanamide] | < 25% | ≥ 75%
COC[C@H]1CN[C@H](C)CN1CC(=O)N1CC(C)(C)c2nc(CN(C)CCOCCN[C@H](Cc3cccc(F)c3)C(=O)Nc3ccc(-c4ccncc4)cc3)c(Cc3ccc(F)cc3)cc21 [Example 29, (R)-2-((2-(2-(((6-(4-Fluorobenzyl)-1-(2-((2R,5R)-2-(methoxymethyl)-5-methylpiperazin-1-yl)acetyl)-3,3-dimethyl-2,3-dihydro-1H-pyrrolo[3,2-b]pyridin-5-yl)methyl)(methyl)amino)ethoxy)ethyl)amino)-3-(3-fluorophenyl)-N-(4-(pyridin-4-yl)phenyl)propanamide] | 50 to 75% | ≥ 75%
